Paper PMC11697409, “Design of Natterins-based peptides improves antimicrobial and antiviral activities” (Biotechnology Reports, 2024)
Read-outs that look alike come from different tables or passages of the source. Residues, ends and D or L forms follow the SMILES beside them. No end group written: not given here.

Tests used:
trypsin [1] = conditions: cited from earlier work
Method: In the case of the peptide Cap11, this loss of activity occurs after 15 min of incubation. Conversely, a brief exposure of up to 5 min to trypsin enhances the antimicrobial activity of peptides such as Cap11–1-18m² by a factor of 2 [76]. […] The sp ...

[2] = various assays; cited from earlier work
From the text: Similarly, peptides including HKPLP, Cap18, Cap11, Cap11–1-18m², Cecropin B, Cecropin P1, Melittin, Indolic ...

G. mellonella larvae = assay: Toxicity in Galleria mellonella; assay type: in vivo; conditions: 10 µL of 50 µM injected into the last left proleg, ten larvae per group, 7 days, three independent experiments
Method: For this study, the methodologies described by Mylonakis et al. and Jorjão et al., with some modifications were employed. G. mellonella larvae in their final larval stage were used for the experiment. Ten randomly selected G. mellonella larvae of similar weight and size (250 to 350 mg) were used per group in all assays. Syringes (Hamilton Inc., USA) used for injections were sterilized with peracetic acid (Henkel - Ecolab GmbH, Düsseldorf, Germany) according to the manufacturer's instructions prior to inoculation. Each larva was injected with 10 µL of each peptide (NATT2_06 and NATT4_01) at a concentration of 50 µM into the last left proleg. A control group was injected with PBS to assess overall viability. The number of deceased G. mellonella was recorded every 24 h after peptide injection, with monitoring continuing for 7 days across three independent experiments. […] The experiment concluded either when all larvae in the experimental group had died or transitioned into the pupal form.

trypsin [3] = assay: Peptide stability to trypsin, HPLC-MS; assay type: in vitro ADME; conditions: trypsin 20 μg/mL, peptide 100 μg/mL, incubation time not given; for Change after trypsin treatment, mass spectra: ESI-MS; for Change after trypsin treatment, HPLC chromatogram: HPLC C-18, UV 220 nm
Method: Peptide stability was evaluated under various conditions. To investigate the impact of temperature on peptide structure, samples were incubated at 37 °C and 60 °C for 24 h. A control sample was kept at -4 °C. To evaluate the distribution under acidic conditions, the peptides were dissolved in a 0.074 M HCl solution, resulting in a pH of 3. For evaluation under basic conditions, the peptides were dissolved in a 0.18 M NaOH solution, resulting in a pH of 11. A control sample was maintained at pH 7. Additionally, samples were exposed to trypsin solutions at a concentration of 20 µg/mL. All samples underwent analysis using High-Performance Liquid Chromatography (HPLC) coupled with Mass Spectrometry (LC/MS-2020 EV - Prominence; Shimadzu Corporation, Tokyo, Japan). The HPLC system comprised LC-10AD mobile phase pumps, an Ultrasphere C-18 column (5 µm; 4.6 × 250 mm), a UV-vis SPD-10AV detector set at a wavelength of 220 nm, and a mass spectrometer operating in electrospray ionization (ESI) mode with a quadrupole separator.
In mass spectrometry assays, an alkaline pH can lead to diverse outcomes. Specifically, in the analysis of proteins and peptides, an alkaline environment may induce unintended chemical modifications in certain samples, impacting ionization, fragmentation, and the detection of reference molecules. Additionally, the peptides underwent treatment with a trypsin solution at a concentration of 20 μg/mL.

[4] = test system: Chikungunya virus (CHIKV, ECSA genotype) in Huh-7 cells; assay type: cell-based; conditions: vs untreated CHIKV control
Method: . First, the viral propagation and titration were performed in the adherent African green monkey kidney epithelial (Vero) cells (ATCC CRL-1586). The virus was grown in Vero cultured in MEM medium (Gibco, Waltham, MA, USA) supplemented with 10 % fetal bovine serum (FBS, Gibco), 100 U/mL penicillin, and 100 μg/mL streptomycin (Gibco, Waltham, MA, USA)-M10) for 48 h Then, the supernatant was collected, harvested, and titrated as previously described. The titer obtained for CHIKV was 9.3 × 10^6 PFU/ml.
The immortalized human hepatocytes derived from the hepatocarcinoma of an individual (Huh-7 lineage, CLS 300156) were cultured. The Huh-7 were grown in Minimum Essential Medium (Advanced MEM, Gibco®, USA), supplemented with 10 % (v/v) heat-inactivated fetal bovine serum (FBS) (Gibco®, USA), 100 U/mL penicillin, and 100 μg/mL streptomycin (PenStrep – Gibco®, USA), along with 2 mM L-glutamine (Gibco®, USA), and maintained in a humidified atmosphere with 5 % CO2 at 37 °C. […]
The second assay, named "co-treatment" (Figure S1b), involved removing the culture medium from the wells, washing with PBS, followed by simultaneous inoculation of CHIKV and peptides, diluted in the same manner in culture medium with the same supplementation, in triplicate. […] Cells were also monitored for 12 h. […]
After conducting the assays, each viral RNA in the samples' supernatant was extracted using the QIAamp® Viral RNA Mini Kit (QIAGEN®, Germany). […] For the molecular characterization of NATT peptide treatment, RNA samples extracted from the plaque challenge assays' supernatants and viral stock dilutions underwent quantitative reverse transcription PCR (RT-qPCR) assays. […]
For the RT-qPCR reaction, the AgPath-ID® One Step RT-qPCR kit (Applied Biosystems®, USA) was used for each extracted RNA in duplicate. […] All detection and quantification of viral RNA was done by real-time PCR of each sample (Table S1 and Figure S14). […]

human RBC = assay: Hemolytic test; assay type: cell-based; conditions: 50 μM, 1 h at 37 °C, A570, 1 % TritonX-100 as positive control; highest percentage observed
Method: To perform the hemolytic test, human RBC was obtained from a volunteer donor. After centrifugation at 1000 xg for 5 min, the RBC pellets were resuspended in 5 % (vol/vol) sterile saline at different concentrations of peptides NATT2_06 and NATT4_01, and subsequently incubated at 37 °C for 1 hour. The supernatants were transferred to a 96-well plate, and the absorbance at 570 nm (A570) was measured. 0.12 % DMSO and 1 % TritonX-100 were used as negative and positive control, respectively. The hemolysis rate was calculated as Eq 1: Hemolysis%=A(sample)−A(DMSO)/A(Triton)−A(DMSO)x100

Compound | time of incubation with trypsin until antimicrobial activity is entirely lost (trypsin [1]) [s] | temperature withstood [2] | further results
Cap18 | ≤ 30 | up to 100 °C | –
Cecropin B | ≤ 30 | up to 100 °C | –
CC(C)C[C@H](NC(=O)[C@H](CCCCN)NC(=O)CNC(=O)[C@H](CC(C)C)NC(=O)CNC(=O)[C@H](Cc1ccc(O)cc1)NC(=O)[C@H](CCCCN)NC(=O)[C@H](CC(N)=O)NC(=O)[C@H](CCCCN)NC(=O)[C@H](C)NC(=O)[C@@H](NC(=O)[C@H](Cc1ccc(O)cc1)NC(=O)[C@@H](N)CC(C)C)C(C)C)C(N)=O [NATT4_01] (H-LYVAKNKYGLGKL-NH2) | – | – | Deaths of G. mellonella larvae (G. mellonella larvae): no deaths were observed; Change after trypsin treatment, mass spectra (trypsin [3]): fragments of the peptide were discernible; Change after trypsin treatment, HPLC chromatogram (trypsin [3]): no notable shifts observed in the chromatograms; Percentage of viral inhibition, co-treatment ([4]; 25 μM): 25,31%; Percentage of viral inhibition, co-treatment ([4]; 50 μM): 22,62%; Percentage of viral inhibition, co-treatment ([4]; 3125 μM (so in the source)): 22,44%
Indolicidin (ILPWKWPWWPWRR; ends and bridges not checked; UniProt P33046 131-143, looked up) | ≤ 30 | up to 100 °C | –
Melittin | ≤ 30 | up to 100 °C | –
Cecropin P1 (SWLSKTAKKLENSAKKRISEGIAIAIQGGPR; Cecropin-P1; UniProt P14661 14-44, looked up) | ≤ 30 | up to 100 °C | –
CC(C)C[C@H](NC(=O)[C@H](CCCCN)NC(=O)[C@@H]1CCCN1C(=O)[C@H](CCCNC(=N)N)NC(=O)[C@H](CC(C)C)NC(=O)[C@@H](NC(=O)[C@@H](N)[C@@H](C)O)[C@@H](C)O)C(=O)N[C@@H](CCCCN)C(=O)N[C@@H](CO)C(=O)N[C@@H](CCCCN)C(N)=O [NATT2_06] (H-TTLRPKLKSK-NH2) | – | – | hemolysis (human RBC): 2%; Deaths of G. mellonella larvae (G. mellonella larvae): only three deaths occurred; Change after trypsin treatment, mass spectra (trypsin [3]): displayed notable changes in mass; Change after trypsin treatment, HPLC chromatogram (trypsin [3]): displayed notable changes in mass
